From the NIST ThermoML archive (doi:10.1016/j.jct.2013.12.019)

Assay: mn = molality of the nth substance listed, in mol/kg
Conditions: 101 kPa, Liquid, Alternating current cell with electrodes

CCCCCCCCCCCC[N+](C)(C)C.[Br-] [dodecyltrimethylammonium bromide] + O
electrical conductivity [S/m]
Conditions	293.15 K	298.15 K	303.15 K	308.15 K	313.15 K
m1 = 0.0015	0.014	0.0143	0.0144	0.0153	0.0169
m1 = 0.003	0.027	0.0273	0.0278	0.0286	0.032
m1 = 0.0045	0.0397	0.0412	0.0413	0.042	0.0469
m1 = 0.006	0.0524	0.0535	0.055	0.0551	0.061
m1 = 0.0075	0.0645	0.0669	0.0675	0.068	0.0759
m1 = 0.009	0.0763	0.0784	0.0798	0.0808	0.0895
m1 = 0.0105	0.088	0.091	0.0908	0.0927	0.103
m1 = 0.012	0.0995	0.102	0.103	0.105	0.116
m1 = 0.0135	0.111	0.113	0.114	0.117	0.129
m1 = 0.015	0.121	0.123	0.126	0.128	0.137
m1 = 0.0165	0.13	0.132	0.132	0.134	0.144
m1 = 0.018	0.136	0.137	0.137	0.139	0.149
m1 = 0.0195	0.139	0.14	0.141	0.142	0.152
m1 = 0.021	0.142	0.142	0.143	0.145	0.156
m1 = 0.0225	0.145	0.145	0.146	0.148	0.16
m1 = 0.024	0.147	0.148	0.149	0.151	0.162
m1 = 0.0255	0.15	0.151	0.151	0.154	0.165
m1 = 0.027	0.153	0.154	0.154	0.158	0.168
m1 = 0.0285	0.156	0.156	0.156	0.16	0.171
m1 = 0.03	0.159	0.159	0.16	0.163	0.173
